As a reminder, the CC50 is the concentration at which the toxic effect on the cells reaches its halfway point. Usually inhibition stands for the relative decrease from the control value, in per cent.

A short description of series [1]: Test B: Cytotoxicity Assay. It is filed as cell-based. As to conditions: human, uninfected MT-4 cells, same protocol as Test A. The protocol:
(§1) MT-4 cells were next mixed with HIV-IIIb at an m.o.i of 0.003 for 1 hour, after which time 35 μL of virus/cell mixture (2000 cells) was immediately added to each well containing 40 μL of diluted compound. The plates were then incubated at 37° C. for 5 days. […] Cell lysis was carried out by incubating at room temperature for 10 min and then chemiluminescence was read.
Test B: Cytotoxicity Assay
Compound cytotoxicity and the corresponding CC50 values was determined using the same protocol as described in the antiviral assay (Test A) except that uninfected cells were used.

Another series deals with HIV-IIIb. The series can be described thus: Test A: Antiviral Assay in MT4 Cells. The note with it: Human immunodeficiency virus 1, IIIB, MT4, 120 h; for inhibition at 0.2 µM: read-out: % inhibition at 0.2 μM; for inhibition at 2 µM: read-out: % inhibition at 2 μM. The series is classed as cell-based, HIV-1. On the procedure:
Test A: Antiviral Assay in MT4 Cells
as §1

`CCC(O)(C#Cc1ccc(-c2cccc3c(NS(C)(=O)=O)nn(C)c23)c([C@H](Cc2cc(F)cc(F)c2)NC(=O)Cn2nc(C(F)(F)F)c3c2C(F)(F)[C@@H]2C[C@H]32)n1)CC` [Compound 66, 2-((3bS,4aR)-5,5-difluoro-3-(trifluoromethyl)-3b,4,4a,5-tetrahydro-1H-cyclopropa[3,4]cyclopenta[1,2-c]pyrazol-1-yl)-N—((S)-2-(3,5-difluorophenyl)-1-(6-(3-ethyl-3-hydroxypent-1-yn-1-yl)-3-(1-methyl-3-(methylsulfonamido)-1H-indazol-7-yl)pyridin-2-yl)ethyl)acetamide] returned a CC50 at 5 days in series [1] of 6.96 µM. In the series with HIV-IIIb, the inhibition at 0.2 µM is 97% and the inhibition at 2 µM came to 97%.

On to `Cc1nc(NS(C)(=O)=O)c2cccc(-c3ccc(C#CC(C)(C)O)nc3[C@H](Cc3cc(F)cc(F)c3)NC(=O)Cn3nc(C(F)F)c4c3C(F)(F)[C@@H]3C[C@H]43)n12` [Compound 120H, 2-((3b-S,4aR)-3-(difluoromethyl)-5,5-difluoro-3b,4,4a,5-tetrahydro-1H-cyclopropa[3,4]cyclopenta[1,2-c]pyrazol-1-yl)-N—((S)-2-(3,5-difluorophenyl)-1-(6-(3-hydroxy-3-methylbut-1-yn-1-yl)-3-(3-methyl-1-(methylsulfonamido)imidazo[1,5-a]pyridin-5-yl)pyridin-2-yl)ethyl)acetamide], for which half-maximal cytotoxicity in series [1] (CC50 at 5 days) was put at 11.7 µM. In addition, in the series on HIV-IIIb, the inhibition at 0.2 µM is 51% and the inhibition at 2 µM was determined as 88%.

In the case of `Cn1nc(N)c2cccc(-c3ccc(C#CC(C)(C)O)nc3[C@H](Cc3cc(F)cc(F)c3)NC(=O)Cn3nc(C(F)F)c4c3C(F)(F)[C@@H]3C[C@H]43)c21` [Compound 32, N—((S)-1-(3-(3-amino-1-methyl-1H-indazol-7-yl)-6-(3-hydroxy-3-methylbut-1-yn-1-yl)pyridin-2-yl)-2-(3,5-difluorophenyl)ethyl)-2-((3b-S,4aR)-3-(difluoromethyl)-5,5-difluoro-3b,4,4a,5-tetrahydro-1H-cyclopropa[3,4]cyclopenta[1,2-c]pyrazol-1-yl)acetamide], the CC50 at 5 days in series [1] amounted to 9.18 µM. Besides, in the series on HIV-IIIb, the inhibition at 0.2 µM worked out at 84% and the inhibition at 2 µM turned out to be 84%.

The compound `Cn1nc(NS(C)(=O)=O)c2c(Cl)ccc(-c3ccc(C#CC(O)(CF)CF)nc3[C@H](Cc3cc(F)cc(F)c3)NC(=O)Cn3nc(C(F)F)c4c3C(F)(F)[C@@H]3C[C@H]43)c21` [Compound 170, N—((S)-1-(3-(4-chloro-1-methyl-3-(methylsulfonamido)-1H-indazol-7-yl)-6-(4-fluoro-3-(fluoromethyl)-3-hydroxybut-1-yn-1-yl)pyridin-2-yl)-2-(3,5-difluorophenyl)ethyl)-2-((3b-S,4aR)-3-(difluoromethyl)-5,5-difluoro-3b,4,4a,5-tetrahydro-1H-cyclopropa[3,4]cyclopenta[1,2-c]pyrazol-1-yl)acetamide] displayed a CC50 at 5 days in series [1] of 17 µM. Further, in the series on HIV-IIIb, the inhibition at 0.2 µM turned out to be 88% and the inhibition at 2 µM is 88%.

In turn, `Cn1nc(NS(C)(=O)=O)c2cccc(-c3ccc(C#CC(C)(C)CO)nc3[C@H](Cc3cc(F)cc(F)c3)NC(=O)Cn3nc(C(F)(F)F)c4c3C(F)(F)[C@@H]3C[C@H]43)c21` [Compound 63, 2-((3bS,4aR)-5,5-difluoro-3-(trifluoromethyl)-3b,4,4a,5-tetrahydro-1H-cyclopropa[3,4]cyclopenta[1,2-c]pyrazol-1-yl)-N—((S)-2-(3,5-difluorophenyl)-1-(6-(4-hydroxy-3,3-dimethylbut-1-yn-1-yl)-3-(1-methyl-3-(methylsulfonamido)-1H-indazol-7-yl)pyridin-2-yl)ethyl)acetamide] returned a CC50 at 5 days in series [1] of 8.89 µM. In the series on HIV-IIIb, the inhibition at 0.2 µM was 91% and the inhibition at 2 µM came to 91%.

In series [1], `C[C@@H](O)C#Cc1ccc(-c2ccc(Cl)c3c(NS(C)(=O)=O)nn(C)c23)c([C@H](Cc2cc(F)cc(F)c2)NC(=O)Cn2nc(C(F)F)c3c2C(F)(F)[C@@H]2C[C@H]32)n1` [Compound 143, N—((S)-1-(3-(4-chloro-1-methyl-3-(methylsulfonamido)-1H-indazol-7-yl)-6-((R)-3-hydroxybut-1-yn-1-yl)pyridin-2-yl)-2-(3,5-difluorophenyl)ethyl)-2-((3b-S,4aR)-3-(difluoromethyl)-5,5-difluoro-3b,4,4a,5-tetrahydro-1H-cyclopropa[3,4]cyclopenta[1,2-c]pyrazol-1-yl)acetamide] yielded a CC50 at 5 days of 11.3 µM. Besides, in the series with HIV-IIIb, the inhibition at 0.2 µM was found to be 98% and the inhibition at 2 µM amounted to 98%.

Compound `Cn1nc(NS(C)(=O)=O)c2cccc(-c3cnc(C#CC(C)(C)O)nc3[C@H](Cc3cc(F)cc(F)c3)NC(=O)Cn3nc(C(F)F)c4c3C(F)(F)CCC4(F)F)c21` [Compound 40, (S)-2-(3-(difluoromethyl)-4,4,7,7-tetrafluoro-4,5,6,7-tetrahydro-1H-indazol-1-yl)-N-(2-(3,5-difluorophenyl)-1-(2-(3-hydroxy-3-methylbut-1-yn-1-yl)-5-(1-methyl-3-(methylsulfonamido)-1H-indazol-7-yl)pyrimidin-4-yl)ethyl)acetamide] displayed a CC50 at 5 days in series [1] of 8.72 µM. Moreover, in the series with HIV-IIIb, the inhibition at 0.2 µM came out at 87% and the inhibition at 2 µM amounted to 87%.

In turn, `Cn1nc(NS(C)(=O)=O)c2c(Cl)ccc(-c3ccc(-c4cnc(C(C)(C)C)s4)nc3[C@H](Cc3cc(F)cc(F)c3)NC(=O)Cn3nc(C(F)(F)F)c4c3C(F)(F)[C@@H]3C[C@H]43)c21` [Compound 178, N—((S)-1-(6-(2-(tert-butyl)thiazol-5-yl)-3-(4-chloro-1-methyl-3-(methylsulfonamido)-1H-indazol-7-yl)pyridin-2-yl)-2-(3,5-difluorophenyl)ethyl)-2-((3b-S,4aR)-5,5-difluoro-3-(trifluoromethyl)-3b,4,4a,5-tetrahydro-1H-cyclopropa[3,4]cyclopenta[1,2-c]pyrazol-1-yl)acetamide] gave a half-maximal cytotoxic concentration (CC50) at 5 days in series [1] of 14 µM. For the same compound, in the series on HIV-IIIb, the inhibition at 0.2 µM came to 95% and the inhibition at 2 µM turned out to be 100%.

Turning to `Cn1nc(NC(=O)CN2CCCC2)c2c(Cl)ccc(-c3ccc(C#CC(C)(C)O)nc3[C@H](Cc3cc(F)cc(F)c3)NC(=O)Cn3nc(C(F)F)c4c3C(F)(F)[C@@H]3C[C@H]43)c21` [Compound 100, N—((S)-1-(3-(4-chloro-1-methyl-3-(2-(pyrrolidin-1-yl)acetamido)-1H-indazol-7-yl)-6-(3-hydroxy-3-methylbut-1-yn-1-yl)pyridin-2-yl)-2-(3,5-difluorophenyl)ethyl)-2-((3b-S,4aR)-3-(difluoromethyl)-5,5-difluoro-3b,4,4a,5-tetrahydro-1H-cyclopropa[3,4]cyclopenta[1,2-c]pyrazol-1-yl)acetamide], in series [1], it took 5.14 µM to reach half-maximal cytotoxicity (CC50 at 5 days). Further, in the series on HIV-IIIb, the inhibition at 0.2 µM was 99% and the inhibition at 2 µM amounted to 99%.

In series [1], `Cn1nc(NS(C)(=O)=O)c2c(Cl)ccc(-c3ccc(C#CC(C)(O)CO)nc3[C@H](Cc3cc(F)cc(F)c3)NC(=O)Cn3nc(C(F)(F)F)c4c3C(F)(F)[C@@H]3C[C@H]43)c21` (stereo partly drawn) [Compound 151, N-((1S)-1-(3-(4-chloro-1-methyl-3-(methylsulfonamido)-1H-indazol-7-yl)-6-(3,4-dihydroxy-3-methylbut-1-yn-1-yl)pyridin-2-yl)-2-(3,5-difluorophenyl)ethyl)-2-((3bS,4aR)-5,5-difluoro-3-(trifluoromethyl)-3b,4,4a,5-tetrahydro-1H-cyclopropa[3,4]cyclopenta[1,2-c]pyrazol-1-yl)acetamide] came in with a half-maximal cytotoxic concentration (CC50) at 5 days of 25.3 µM. In the series on HIV-IIIb, the inhibition at 0.2 µM was found to be 92% and the inhibition at 2 µM turned out to be 92%.

(Values after US20140303164A1, “THERAPEUTIC COMPOUNDS” (Gilead Sciences, Inc., priority 2013, published 2014).)
